Data from patent publication US8258311B2, “Human protein tyrosine phosphatase inhibitors and methods of use” (Aerpio Therapeutics Inc., priority 2006, dated 2012).

Tests used:
[1] = biological target: T1, PTP1B (Homo sapiens, UniProt P18031); assay: PTP1B inhibition (IC50); type: biochemical
T1 sequence (P18031 1-435): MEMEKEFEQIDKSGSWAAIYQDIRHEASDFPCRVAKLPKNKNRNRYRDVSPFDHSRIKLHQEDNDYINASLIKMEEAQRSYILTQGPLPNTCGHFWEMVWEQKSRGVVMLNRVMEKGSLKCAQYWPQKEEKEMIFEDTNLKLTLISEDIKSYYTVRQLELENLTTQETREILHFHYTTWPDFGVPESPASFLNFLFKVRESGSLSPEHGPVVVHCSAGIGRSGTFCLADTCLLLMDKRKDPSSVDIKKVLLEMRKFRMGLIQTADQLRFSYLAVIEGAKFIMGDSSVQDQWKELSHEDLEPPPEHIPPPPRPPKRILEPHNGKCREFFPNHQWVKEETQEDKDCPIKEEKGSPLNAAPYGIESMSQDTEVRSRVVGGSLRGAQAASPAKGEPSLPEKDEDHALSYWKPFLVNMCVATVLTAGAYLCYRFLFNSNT

[2] = biological target: HPTPβ (Homo sapiens, UniProt P23467); assay: HPTPβ inhibition (IC50); type: biochemical
HPTPβ, sequence (P23467 23-1997): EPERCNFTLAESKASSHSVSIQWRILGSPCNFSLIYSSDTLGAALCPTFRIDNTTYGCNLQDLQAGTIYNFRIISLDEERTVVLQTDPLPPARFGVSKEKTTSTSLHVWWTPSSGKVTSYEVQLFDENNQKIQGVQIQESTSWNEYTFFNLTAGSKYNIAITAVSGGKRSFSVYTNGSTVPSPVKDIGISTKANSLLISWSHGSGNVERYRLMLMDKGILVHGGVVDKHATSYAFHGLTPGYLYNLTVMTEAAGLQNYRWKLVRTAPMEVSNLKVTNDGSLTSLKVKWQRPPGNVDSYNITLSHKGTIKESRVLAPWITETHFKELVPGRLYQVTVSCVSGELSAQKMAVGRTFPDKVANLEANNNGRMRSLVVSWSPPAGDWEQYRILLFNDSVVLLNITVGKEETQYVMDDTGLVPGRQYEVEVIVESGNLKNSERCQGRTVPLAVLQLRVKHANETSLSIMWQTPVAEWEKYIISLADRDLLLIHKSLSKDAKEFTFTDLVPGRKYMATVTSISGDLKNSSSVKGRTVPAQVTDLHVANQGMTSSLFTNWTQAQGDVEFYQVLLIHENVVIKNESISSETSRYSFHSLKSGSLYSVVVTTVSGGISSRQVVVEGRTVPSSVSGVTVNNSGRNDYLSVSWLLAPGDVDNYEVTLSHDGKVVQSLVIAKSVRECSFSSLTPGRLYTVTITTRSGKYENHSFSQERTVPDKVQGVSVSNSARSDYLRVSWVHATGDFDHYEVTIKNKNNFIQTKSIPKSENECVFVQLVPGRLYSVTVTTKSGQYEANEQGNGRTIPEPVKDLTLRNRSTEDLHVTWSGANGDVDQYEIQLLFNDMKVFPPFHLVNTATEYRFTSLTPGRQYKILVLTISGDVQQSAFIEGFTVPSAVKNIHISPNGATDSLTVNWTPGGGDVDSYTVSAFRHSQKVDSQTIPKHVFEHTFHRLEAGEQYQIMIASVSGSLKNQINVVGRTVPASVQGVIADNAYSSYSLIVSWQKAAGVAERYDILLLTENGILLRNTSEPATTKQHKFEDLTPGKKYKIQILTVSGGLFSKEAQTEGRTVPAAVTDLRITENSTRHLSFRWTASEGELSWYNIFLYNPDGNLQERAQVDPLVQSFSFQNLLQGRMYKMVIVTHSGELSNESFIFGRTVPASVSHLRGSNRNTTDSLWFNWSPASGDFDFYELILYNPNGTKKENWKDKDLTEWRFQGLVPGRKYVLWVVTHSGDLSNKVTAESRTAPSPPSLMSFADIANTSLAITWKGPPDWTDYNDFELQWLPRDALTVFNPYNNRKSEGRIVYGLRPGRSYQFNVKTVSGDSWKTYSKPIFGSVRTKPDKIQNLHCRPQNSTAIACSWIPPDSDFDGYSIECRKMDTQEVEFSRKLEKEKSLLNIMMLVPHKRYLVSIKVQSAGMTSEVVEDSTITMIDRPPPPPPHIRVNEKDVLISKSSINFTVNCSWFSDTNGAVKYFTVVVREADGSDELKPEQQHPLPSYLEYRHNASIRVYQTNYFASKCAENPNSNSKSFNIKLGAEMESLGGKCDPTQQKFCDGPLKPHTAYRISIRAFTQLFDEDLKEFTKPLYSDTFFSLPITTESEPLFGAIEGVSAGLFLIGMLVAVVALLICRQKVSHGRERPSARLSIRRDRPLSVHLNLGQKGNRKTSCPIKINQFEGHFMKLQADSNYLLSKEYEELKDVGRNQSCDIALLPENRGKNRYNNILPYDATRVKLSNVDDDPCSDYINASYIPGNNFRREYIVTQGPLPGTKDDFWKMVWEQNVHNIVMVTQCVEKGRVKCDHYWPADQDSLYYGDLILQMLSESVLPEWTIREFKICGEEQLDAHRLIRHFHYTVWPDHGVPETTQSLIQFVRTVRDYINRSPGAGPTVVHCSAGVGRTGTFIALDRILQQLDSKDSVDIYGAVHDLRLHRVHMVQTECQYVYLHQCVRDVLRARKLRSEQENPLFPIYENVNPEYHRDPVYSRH

Compound | IC50 [1] [nM] | IC50 [2] [nM]
4-((S)-2-(4-Ethylthiazol-2-yl)-2-{(S)-2-[2-(methoxycarbonylamino)-acetamido]-3-phenylpropanamido}ethyl)phenylsulfamic acid | 299 | –
CCOC(=O)Cc1csc([C@H](Cc2ccc(NS(=O)(=O)O)cc2)NC(=O)OC(C)(C)C)n1 | 50000 | 167
CC(C)(C)OC(=O)N[C@@H](Cc1ccccc1)C(=O)N[C@@H](Cc1ccc(NS(=O)(=O)O)cc1)c1csc(-c2ccccc2)n1 [4-{(S)-2-(S)-2-(tert-Butoxycarbonylamino)-3-phenylpropanamido-2-(2-phenylthiazol-4-yl)}phenylsulfamic acid] | 905 | –
CCCc1csc([C@H](Cc2ccc(NS(=O)(=O)O)cc2)NC(=O)OC(C)(C)C)n1 [(S)-4-(2-(tert-Butoxycarbonylamino)-2-(4-propylthiazol-2-yl)ethyl)phenyl sulfamic acid] | 35600 | 40
CCc1csc([C@H](Cc2ccc(NS(=O)(=O)O)cc2)NC(=O)CNC(=O)OC(C)(C)C)n1 [(S)-4-{2-[2-(tert-Butoxycarbonylamino)acetamido]-2-(4-ethylthiazol-2-yl)ethyl}phenylsulfamic acid] | 16000 | 28
CCc1csc([C@H](Cc2ccc(NS(=O)(=O)O)cc2)NC(=O)[C@H](Cc2ccccc2)NC(C)=O)n1 [4-[(S)-2-((S)-2-Acetamido-3-phenylpropanamido)-2-(4-ethylthiazol-2-yl)ethyl]phenylsulfamic acid] | 1970 | 1
CC(C)(C)C(=O)N[C@@H](Cc1ccc(NS(=O)(=O)O)cc1)c1nc(-c2ccc3c(c2)OCCO3)cs1 [4-((S)-2-(4-(2,3-Dihydrobenzo[b][1,4]dioxin-6-yl)thiazol-2-yl)-2-pivalamidoethyl)phenylsulfamic acid] | 38300 | 138
CCc1csc([C@H](Cc2ccc(NS(=O)(=O)O)cc2)NC(=O)[C@@H](Cc2ccccc2)NC(=O)OC(C)(C)C)n1 [4-{(S)-2-[(R)-2-(tert-butoxycarbonylamino)-3-phenylpropanamido]-2-(4-ethylthiazol-2-yl)ethyl}phenylsulfamic acid] | 7120 | 4
COC(=O)N[C@@H](Cc1ccccc1)C(=O)N[C@@H](Cc1ccc(NS(=O)(=O)O)cc1)c1nccs1 [4-{(S)-2-[(S)-2-(Methoxycarbonylamino)-3-phenylpropanamido]-2-(thiazol-2-yl)ethyl}phenylsulfamic acid] | 1020 | 6
COC(=O)N[C@@H](Cc1ccccc1)C(=O)N[C@@H](Cc1ccc(NS(=O)(=O)O)cc1)c1csc(CS(=O)(=O)C(C)(C)C)n1 [4-{(S)-2-[2-(tert-Butylsulfonylmethyl)thiazol-4-yl]-2-[(S)-2-(methoxycarbonylamino)-3-phenylpropanamido]ethyl}phenylsulfamic acid] | 1210 | 2
CC(=O)N[C@@H](Cc1ccccc1)C(=O)N[C@@H](Cc1ccc(NS(=O)(=O)O)cc1)c1nc(-c2ccsc2)cs1 [4-{(S)-2-((S)-2-Acetamido-3-phenylpropanamido)-2-[4-(thiophen-3-yl)thiazol-2-yl]ethyl}phenylsulfamic acid] | 1160 | 0.24
Cc1nc([C@H](Cc2ccc(NS(=O)(=O)O)cc2)NC(=O)OC(C)(C)C)cs1 | 18900 | 33
COC(=O)N[C@@H](Cc1ccccc1)C(=O)N[C@@H](Cc1ccc(NS(=O)(=O)O)cc1)c1nc(CC(F)(F)F)cs1 [4-{(S)-2-[(S)-2-(Methoxycarbonylamino)-3-phenylpropanamido]-2-[4-(2,2,2-trifluoroethyl)thiazol-2-yl]ethyl}phenylsulfamic acid] | 1630 | 0.3
COC(=O)N[C@@H](Cc1ccccc1)C(=O)N[C@@H](Cc1ccc(NS(=O)(=O)O)cc1)c1nc(-c2cccs2)cs1 [4-{(S)-2-[(S)-2-(Methoxycarbonylamino)-3-phenylpropanamido]-2-[4-(thiophen-2-yl)thiazol-2-yl]ethyl}phenylsulfamic acid] | 990 | –
CC(C)(C)OC(=O)N[C@@H](Cc1ccc(NS(=O)(=O)O)cc1)c1nc(CO)cs1 [(S)-4-(2-(tert-Butoxycarbonylamino)-2-(4-(hydroxymethyl)thiazol-2-yl)ethyl)phenylsulfamic acid] | 31600 | 644
COC(=O)N[C@@H](Cc1ccccc1)C(=O)N[C@@H](Cc1ccc(NS(=O)(=O)O)cc1)c1csc(-c2ccco2)n1 | 5000 | –
Cc1csc([C@H](Cc2ccc(NS(=O)(=O)O)cc2)NC(=O)C(C)(C)C)n1 [(S)-4-(2-(4-Methylthiazol-2-yl)-2-pivalamidoethyl)phenyl-sulfamic acid] | 50000 | –
COC(=O)N[C@@H](Cc1ccccc1)C(=O)N[C@@H](Cc1ccc(NS(=O)(=O)O)cc1)c1csc(-c2ccccc2)n1 [4-{(S)-2-[(S)-2-(Methoxycarbonylamino)-3-phenylpropionamido]-2-(2-phenylthiazole-4-yl)ethyl}phenylsulfamic acid] | 508 | –

The remaining lines, values ahead:

IC50 [1] [nM] | IC50 [2] [nM] | Compound
390 | – | CCc1nc([C@H](Cc2ccc(NS(=O)(=O)O)cc2)NC(=O)[C@H](Cc2ccccc2)NC(=O)OC)sc1-c1ccccc1 [4-{(S)-2-(4-Ethyl-5-phenylthiazol-2-yl)-2-[(S)-2-(methoxy-carbonylamino)-3-phenyl-propanamido]ethyl}phenylsulfamic acid]
310 | 1 | COC(=O)N[C@@H](Cc1ccccc1)C(=O)N[C@@H](Cc1ccc(NS(=O)(=O)O)cc1)c1nc(C)c(C)s1 [4-{(S)-2-(4,5-Dimethylthiazol-2-yl)-2-[(S)-2-(methoxycarbonylamino)-3-phenyl-propanamido]ethyl}phenylsulfamic acid]
180 | 1 | COC(=O)N[C@@H](Cc1ccccc1)C(=O)N[C@@H](Cc1ccc(NS(=O)(=O)O)cc1)c1nc2c(s1)CCC2 [4-{(S)-2-(5,6-Dihydro-4H-cyclopenta[d]thiazol-2-yl)-2-[(S)-2-(methoxycarbonylamino)-3-phenylpropanamido]ethyl}phenylsulfamic acid]
70 | 0.3 | CCc1csc([C@H](Cc2ccc(NS(=O)(=O)O)cc2)NC(=O)[C@H](CC(C)C)NC(=O)OC)n1 [4-{(S)-2-(4-Ethylthiazol-2-yl)-2-[(S)-2-(methoxycarbonylamino)-4-methylpentanamido]ethyl}phenylsulfamic acid]
597 | – | COC(=O)N[C@@H](Cc1ccccc1)C(=O)N[C@@H](Cc1ccc(NS(=O)(=O)O)cc1)c1nc(-c2ccccc2)cs1 [4-{(S)-2-[(S)-2-(Methoxycarbonylamino)-3-phenylpropanamido]-2-(4-phenylthiazol-2-yl)ethyl}phenylsulfamic acid]
810 | 0.3 | COC(=O)N[C@@H](Cc1ccccc1)C(=O)N[C@@H](Cc1ccc(NS(=O)(=O)O)cc1)c1ncc(-c2ccccc2)s1 [4-{(S)-2-[(S)-2-(Methoxycarbonylamino)-3-phenylpropanamido]-2-(5-phenylthiazol-2-yl)ethyl}phenylsulfamic acid]
640 | 1 | COCc1csc([C@H](Cc2ccc(NS(=O)(=O)O)cc2)NC(=O)[C@H](Cc2ccccc2)NC(=O)OC)n1 [4-{(S)-2-[(S)-2-(Methoxycarbonylamino)-3-phenylpropanamido]-2-[4-(methoxymethyl)thiazol-2-yl]ethyl}phenylsulfamic acid]
1520 | 0.3 | CC(=O)N[C@@H](Cc1ccccc1)C(=O)N[C@@H](Cc1ccc(NS(=O)(=O)O)cc1)c1nc(C(C)(C)C)cs1 [4-[(S)-2-((S)-2-Acetamido-3-phenylpropanamido)-2-(4-tert-butylthiazol-2-yl)ethyl]phenylsulfamic acid]
43100 | 86 | COc1ccc(-c2csc([C@H](Cc3ccc(NS(=O)(=O)O)cc3)NC(=O)C(C)(C)C)n2)c(OC)c1 [4-((S)-2-(4-(2,4-Dimethoxyphenyl)thiazol-2-yl)-2-pivalamidoethyl)phenyl-sulfamic acid]
1780 | – | COC(=O)N[C@@H](Cc1ccccc1)C(=O)N[C@@H](Cc1ccc(NS(=O)(=O)O)cc1)c1nc(C2CCCCC2)cs1 [4-{(S)-2-(4-Cyclohexylthiazol-2-yl)-2-[(S)-2-(methoxycarbonylamino)-3-phenyl-propanamido]ethyl}phenylsulfamic acid]
1090 | – | COC(=O)N[C@@H](Cc1ccccc1)C(=O)N[C@@H](Cc1ccc(NS(=O)(=O)O)cc1)c1csc(-c2sccc2C)n1 [4-{(S)-2-[(S)-2-(Methoxycarbonylamino)-3-phenylpropanamido]-2-[2-(3-methylthiophen-2-yl)thiazol-4-yl]ethyl}phenylsulfamic acid]
604 | – | COC(=O)N[C@@H](Cc1ccccc1)C(=O)N[C@@H](Cc1ccc(NS(=O)(=O)O)cc1)c1csc(-c2cccs2)n1 [4-{(S)-2-[(S)-2-(Methoxycarbonylamino)-3-phenylpropanamido]-2-[2-(thiophen-2-yl)thiazol-4-yl]ethyl}phenylsulfamic acid]
950 | – | COC(=O)N[C@@H](Cc1ccccc1)C(=O)N[C@@H](Cc1ccc(NS(=O)(=O)O)cc1)c1csc(-c2sccc2Cl)n1 [4-{(S)-2-[2-(3-Chlorothiophen-2-yl)thiazol-4-yl]-2-[(S)-2-(methoxycarbonylamino)-3-phenylpropanamido]ethyl}phenylsulfamic acid]
370 | – | COC(=O)N[C@@H](Cc1ccccc1)C(=O)N[C@@H](Cc1ccc(NS(=O)(=O)O)cc1)c1nc(-c2ccc(Cl)s2)cs1 [4-{(S)-2-[4-(5-Chlorothiophen-2-yl)thiazol-2-yl]-2-[(S)-2-(methoxycarbonylamino)-3-phenylpropanamido]ethyl}phenyl-sulfamic acid]
